Where two headings read alike, the source gives them in different places.
Key:
[1] = tested on: non malignant cells (BJ), human fibroblast; experiment: crystal violet assay, cellular viability; format: cell-based
Method: (§1) Compound 1 and compound 2 were tested in their efficacy to kill malignant MCF7 cancer cells. Briefly, 10.000 cells per well were seeded in a 96-well plat on one day and the next day selected compounds were added and incubated with the cells for 48 hrs. The cells were then fixed with 4% paraformaldehyde, stained with 0.05% crystal violet, washed with PBS, and solubilized in 1% SDS. The absorbance of the plate at 595 nm was then measured, quantifying the number of viable cells.
(§2) A number of compounds of the present invention were tested for cytotoxicity towards at least some of human breast cancer cell lines (MCF7, MDA-MB-231), human fibroblast (BJ) and murine triple negative breast cancer cell line 4T1 (Table 2).

[2] = tested on: murine triple negative breast cancer cell line 4T1; experiment: crystal violet assay, cellular viability; format: cell-based; conditions: Mus musculus, 4T1, 48 hours
Method: as §1, §2

[3] = tested on: MCF7 cells; experiment: cellular proliferation, continuous confluence monitoring via Juli FL; format: cell-based, human; conditions: for Final confluence: MCF7, 48 hrs
Method: (§3) We also tested the ability of compound 2 to suppress proliferation of cancer cells by an alternative approach via the real time monitoring with a cellular analyser Juli FL. In brief, MCF7 or MDA-MB-231 cells were seeded in a 6-well plate the day before to reach approximately 20% confluence on the following day. Next day, the camera of the instrument was focused on a particular field with approximately 20% confluence and cells were continuously monitored, recording the confluence and visual appearance every 30 minutes for 48 hrs. Values were then expressed either as simple confluence at the end of the experiment or as slope of the line representing the confluence during a given period of time (Table 10). It is clear from the collected data that, in agreement with Xcelligence data, we do see inhibition of proliferation at 1 μM, complete block of proliferation at 2 μM and a cytotoxic effect at 5 μM. The effect is less pronounced in this case as dead cells remain in the monitored field and some are still counted as living cells by the software.

[4] = tested on: MDA-MB-231 cells; experiment: as above; format: cell-based, human; conditions: for Final confluence: MDA-MB-231, 48 hrs
Method: as §3

[5] = tested on: MCF7 cells; experiment: crystal violet assay, cellular viability; format: cell-based, human
[6] = tested on: MDA-MB-231 cells; experiment: crystal violet assay, cellular viability; format: cell-based, human
[7] = tested on: MCF7 cells; experiment: AnnexinV/PI cell death assay; format: cell-based, human; conditions: for mean percentage of dead cells (AnnexinV/PI): 48 hrs
Method: Briefly, cells were seeded in 12-well plate at 100,000 per well, incubated with the selected compounds for 48 hours, then floating cells were spun, adherent cells trypsinized and spun as well followed by the staining with AnnexinV-FITC and PI probes. Cells were then washed with PBS and measured via Fluorescence Activated Sorter.

[8] = tested on: MCF7 cells; experiment: cellular migration into scratch, JULI FL; format: cell-based, human
Method: (§4) In order to test the effect of compound 2 on cellular migration, we have seeded MCF7 or MDA-MB-231 cells in 12 well plates, let them reach confluence and then introduced a scratch in the monolayer with a 10 μl pipette tip.

[9] = tested on: MDA-MB-231 cells; experiment: cellular migration into scratch, JULI FL; format: cell-based, human
Method: as §4

[10] = tested on: human triple negative breast cancer cells line MDA-MB-231; experiment: tumor growth in vivo, MDA-MB-231 model; parameters: species or system NOD-SCID gamma mice; conditions: for Relative tumor size: MDA-MB-231, 8 mg/kg i.p. twice per week
Method: In order to define the effect of compound 2 on tumor growth and progression in vivo, we tested its effect on the model of human triple negative breast cancer cells line MDA-MB-231, NOD-SCID gamma mice being the immunodeficient host. Mice were injected with 1 million of cells s.c. on the right flank. After appearance of tumors (15-60 mm^3) mice were randomized into three separate group, one receiving corn oil (control) and two compound 2 in a dose of 1 mg/kg or 8 mg/kg. Tumor progression was then monitored by ultrasound imaging Vevo770 and mice received the treatment twice per week, i.p. in approximately 100 ul of corn oil.

[11] = tested on: tamoxifen-resistant T47D (Tam5R); experiment: crystal violet assay, tamoxifen resistant cells; format: cell-based; conditions: Homo sapiens, grown in 5 μM tamoxifen
Method: as §1
(§5) To test whether compound 2 is active against resistant cancer cells, we used tamoxifen-resistant MCF7, T47D and BT474 cell lines. The IC50 values were again measured with the crystal violet assay performed as in example 18. We have documented that there is no statistically significant difference in the ability of compound 2 to induce cytostatic and cytotoxic effects between the parental cells sensitive to tamoxifen and the resistant ones that grow even in the presence of tamoxifen (Table 4).

[12] = tested on: tamoxifen-resistant BT474 (Tam5R); experiment: crystal violet assay, tamoxifen resistant cells; format: cell-based; conditions: Homo sapiens, BT-474, grown in 5 μM tamoxifen
Method: as §1, §5

[13] = tested on: tamoxifen-resistant MCF7 (Tam5R); experiment: crystal violet assay, tamoxifen resistant cells; format: cell-based; conditions: Homo sapiens, grown in 5 μM tamoxifen
Method: as §1, §5

With `CC(=O)N(O)CCCCCNC(=O)CCC(=O)N(O)CCCCCNC(=O)CCC(=O)N(O)CCCCCN(CCCCCCCCCC[P+](c1ccccc1)(c1ccccc1)c1ccccc1)CCCCCCCCCC[P+](c1ccccc1)(c1ccccc1)c1ccccc1.[Cl-].[Cl-]` [Compound 2, Triphenyl(3,14,25-trihydroxy-2,10,13,21,24-pentaoxo-31-(10-(triphenylphosphonio)decyl)-3,9,14,20,25,31-hexaazahentetracontan-41-yl)phosphonium chloride] the “Selectivity index (IC50 non-malignant/IC50 malignant)” value ([1]; BJ vs BJ (reference)) was 1, the IC50 ([1]; Homo sapiens, Fibroblast, BJ non malignant, 48 hours, crystal violet) was 14.3 µM and the IC50 [2] was 2000 nM. The “slope of the confluence line” value ([3]; MCF7, 0-22 h, 1 μM) was 0.655 (0.022), the “slope of the confluence line” value ([3]; MCF7, 0-22 h, 2 μM) was 0.324 (0.016) and the “slope of the confluence line” value ([3]; MCF7, 0-22 h, 5 μM) was 0.317 (0.030). The “slope of the confluence line” value ([3]; MCF7, 22-48 h, 1 μM) was 0.510 (0.014), the “slope of the confluence line” value ([3]; MCF7, 22-48 h, 2 μM) was 0.104 (0.007) and the “slope of the confluence line” value ([3]; MCF7, 22-48 h, 5 μM) was −0.076 (0.010). The Final confluence ([3]; 1 μM) was 53.15 (4.0), the Final confluence ([3]; 2 μM) was 32.94 (2.5) and the Final confluence ([3]; 5 μM) was 26.54 (1.9). The “slope of the confluence line” value ([4]; MDA-MB-231, 0-22 h, 1 μM) was 0.786 (0.010), the “slope of the confluence line” value ([4]; MDA-MB-231, 0-22 h, 2 μM) was 0.470 (0.006) and the “slope of the confluence line” value ([4]; MDA-MB-231, 0-22 h, 5 μM) was 0.454 (0.014). For the same compound, the “slope of the confluence line” value ([4]; MDA-MB-231, 22-48 h, 1 μM) was 0.934 (0.014), the “slope of the confluence line” value ([4]; MDA-MB-231, 22-48 h, 2 μM) was 0.114 (0.011) and the “slope of the confluence line” value ([4]; MDA-MB-231, 22-48 h, 5 μM) was −0.057 (0.013). For the same compound, the Final confluence ([4]; 1 μM) was 65.15 (3.3), the Final confluence ([4]; 2 μM) was 46.58 (2.7) and the Final confluence ([4]; 5 μM) was 25.87 (2.4). The “Selectivity index (IC50 non-malignant/IC50 malignant)” value ([5]; BJ vs MCF7, 48 hours) was 12.43, the IC50 ([5]; Homo sapiens, MCF7, 48 h, crystal violet, read-out: IC50 cellular viability) was 1200 nM and the IC50 ([5]; Homo sapiens, MCF7, MCF7 Parental, read-out: IC50 crystal violet) was 1500 nM. The viability at 1 µM ([5]; Homo sapiens, MCF7, 1 μM, 48 hrs, crystal violet, read-out: mean percentage of viable cells compared to non-treated controls) was 56.9%, the viability at 2 µM ([5]; Homo sapiens, MCF7, 2 μM, 48 hrs, crystal violet, read-out: mean percentage of viable cells compared to non-treated controls) was 20% and the viability at 5 µM ([5]; Homo sapiens, MCF7, 5 μM, 48 hrs, crystal violet, read-out: mean percentage of viable cells compared to non-treated controls) was 10%. For the same compound, the viability at 10 µM ([5]; Homo sapiens, MCF7, 10 μM, 48 hrs, crystal violet, read-out: mean percentage of viable cells compared to non-treated controls) was 12.1%, the “Selectivity index (IC50 non-malignant/IC50 malignant)” value ([6]; BJ vs MDA-MB-231, 48 hours) was 2.64 and the IC50 ([6]; Homo sapiens, MDA-MB-231, 48 h, read-out: IC50 cellular viability) was 5.4 µM. For the same compound, the “mean percentage of dead cells (AnnexinV/PI)” value (“mean percentage of dead cells” for short) ([7]; MCF7, 5 μM) was 35.6%, the “mean percentage of dead cells” value ([7]; MCF7, 10 μM) was 43.7% and the “mean percentage of dead cells” value ([7]; MCF7, 20 μM) was 64.0%. For the same compound, the “percentage of death cells by annexinV/PI staining” value ([7]; MCF7, ratio Ga:compound 2 0:1, 10 μM compound 2 alone) was 35.3 (0.5), the “mean percentage of non-invaded portion of the scratch” value ([8]; MCF7, 0 h, 1 μM) was 100 (4.1) % and the “mean percentage of non-invaded portion of the scratch” value ([8]; MCF7, 0 h, 2 μM) was 100 (4.8) %. The “mean percentage of non-invaded portion of the scratch” value ([8]; MCF7, 0 h, 5 μM) was 100 (4.4) %, the “mean percentage of non-invaded portion of the scratch” value ([8]; MCF7, 24 h, 1 μM) was 78.8 (5.2) % and the “mean percentage of non-invaded portion of the scratch” value ([8]; MCF7, 24 h, 2 μM) was 79.2 (1.1) %. For the same compound, the “mean percentage of non-invaded portion of the scratch” value ([8]; MCF7, 24 h, 5 μM) was 83.8 (0.6) %, the “mean percentage of non-invaded portion of the scratch” value ([8]; MCF7, 48 h, 1 μM) was 61.8 (5.3) % and the “mean percentage of non-invaded portion of the scratch” value ([8]; MCF7, 48 h, 2 μM) was 66.1 (1.1) %. The “mean percentage of non-invaded portion of the scratch” value ([8]; MCF7, 48 h, 5 μM) was 78.8 (0.6) %, the “mean percentage of non-invaded portion of the scratch” value ([9]; MDA-MB-231, 0 h, 1 μM) was 100 (5.5) % and the “mean percentage of non-invaded portion of the scratch” value ([9]; MDA-MB-231, 0 h, 2 μM) was 100 (7.4) %. For the same compound, the “mean percentage of non-invaded portion of the scratch” value ([9]; MDA-MB-231, 0 h, 5 μM) was 100 (6.5) %, the “mean percentage of non-invaded portion of the scratch” value ([9]; MDA-MB-231, 24 h, 1 μM) was 40.7 (8.9) % and the “mean percentage of non-invaded portion of the scratch” value ([9]; MDA-MB-231, 24 h, 2 μM) was 42.7 (8.0) %. The “mean percentage of non-invaded portion of the scratch” value ([9]; MDA-MB-231, 24 h, 5 μM) was 48.4 (8.9) %, the “mean percentage of non-invaded portion of the scratch” value ([9]; MDA-MB-231, 48 h, 1 μM, cells started to die at 48 hrs) was 61.7 (6.7) % and the “mean percentage of non-invaded portion of the scratch” value ([9]; MDA-MB-231, 48 h, 2 μM, cells started to die at 48 hrs) was 76.2 (13.3) %. The “mean percentage of non-invaded portion of the scratch” value ([9]; MDA-MB-231, 48 h, 5 μM, cells started to die at 48 hrs) was 98.5 (9.1) %, the “effect on relative tumor growth, in words” value ([10]; MDA-MB-231, 8 mg/kg) was “significantly reduces relative tumor growth” and the Relative tumor size ([10]; Day 0) was 1.0. It also gave a Relative tumor size ([10]; Day 4) of 1.3, a Relative tumor size ([10]; Day 7) of 1.8 and a Relative tumor size ([10]; Day 11) of 2.6. It also gave a Relative tumor size ([10]; Day 14) of 3.5, a Relative tumor size ([10]; Day 18) of 5.3 and a Relative tumor size ([10]; Day 21) of 7.9. For the same compound, the IC50 [11] was 1200 nM, the IC50 [12] was 4.2 µM and the IC50 [13] was 2100 nM.

Reference: patent US20200078379A1, “DEFEROXAMINE DERIVATIVES AS MEDICAMENTS” (BIOTECHNOLOGICKY USTAV AV CR, V.V.I., priority 2017, published 2020)
